Experimental data from patent US7696129B2, “Substituted aromatic amide derivative, intermediate thereof, agrohorticultural insecticide containing thereof and method for the use thereof” (Nihon Nohyaku Co., Ltd., priority 2001, dated 2010).

Assays:
Assay type in all cases: in vivo
[1] = tested on: Common Cutworm (Spodoptera litura); assay: Test Example 2: insecticidal effect on common cutworm, cabbage leaf immersion; conditions: 50 ppm, cabbage leaf immersed about 30 seconds, second-instar larvae, 25° C., eight days after the inoculation
Text: Insecticidal Effect on Common Cutworm (Spodoptera litura)
A piece of cabbage leaf (cultivar; Shikidori) was immersed for about 30 seconds in a liquid chemical prepared by diluting a preparation containing each compound listed in Tables 4 to 9 as an active ingredient to adjust the concentration to 50 ppm. After air-dryness, it was placed in a plastic Petri dish with a diameter of 9 cm and inoculated with second-instar larvae of common cutworm, after which the dish was closed and then allowed to stand in a room thermostatted at 25° C. Eight days after the inoculation, the dead and alive were counted. The mortality was calculated according to the following equation and the insecticidal effect was judged according to the criterion shown in Test Example 1. The test was carried out with triplicate groups of 10 insects.

[2] = tested on: Smaller Tea Tortrix (Adxophyes sp.); assay: Test Example 3: insecticidal effect on smaller tea tortrix, tea leaf immersion; conditions: 50 ppm, tea leaves immersed about 30 seconds, larvae, 25° C., humidity 70%, eight days after the inoculation
Description: Insecticidal Effect on Smaller Tea Tortrix (Adxophyes sp.)
Tea leaves were immersed for about 30 seconds in a liquid chemical prepared by diluting a preparation containing each compound listed in Tables 1 to 3 as an active ingredient to adjust the concentration to 50 ppm. After air-dryness, the tea leaves were placed in a plastic Petri dish with a diameter of 9 cm and inoculated with larvae of smaller tea tortrix, after which the dish was allowed to stand in a room thermostatted at 25° C. and having a humidity of 70%. Eight days after the inoculation, the dead and alive were counted and the insecticidal effect was judged according to the criterion shown in Test Example 1. The test was carried out with triplicate groups of 10 insects.

[3] = tested on: Diamond Back Moth (Plutella xylostella); assay: Test Example 1: insecticidal effect on diamond back moth, immersion of Chinese cabbage seedling with eggs; conditions: 50 ppm, seedling with eggs immersed about 30 seconds, 25° C., six days after the immersion
Text: Insecticidal Effect on Diamond Back Moth (Plutella xylostella)
Adult diamond back moths were released and allowed to oviposit on a Chinese cabbage seedling. Two days after the release, the seedling having the eggs deposited thereon was immersed for about 30 seconds in a liquid chemical prepared by diluting a preparation containing each compound listed in Tables 4 to 9 as an active ingredient to adjust the concentration to 50 ppm. After air-dryness, it was allowed to stand in a room thermostatted at 25° C. Six days after the immersion, the hatched insects were counted. The mortality was calculated according to the following equation and the insecticidal effect was judged according to the criterion shown below. The test was carried out with triplicate groups of 10 insects.

Row | SMILES | Test Example 2 (insecticidal effect, mortality criterion) [1] | Test Example 3 (insecticidal effect, mortality criterion) [2] | Test Example 1 (insecticidal effect, mortality criterion) [3]
1 | CSCC(C)(C)NC(=O)c1c(I)cccc1C(=O)Nc1ccc(CC(F)(F)F)cc1C [5-1] | A (Mortality 100%) | A (Mortality 100%) | A (Mortality 100%)
2 | CSCC(C)(C)NC(=O)c1c(I)cccc1C(=O)Nc1ccc(CC(F)(F)F)cc1F [5-3] | A (Mortality 100%) | A (Mortality 100%) | A (Mortality 100%)
3 | CSCC(C)(C)NC(=O)c1c(I)cccc1C(=O)Nc1ccc(CC(F)(F)F)cc1Cl [5-4] | A (Mortality 100%) | A (Mortality 100%) | A (Mortality 100%)
4 | CSCC(C)(C)NC(=O)c1c(I)cccc1C(=O)Nc1ccc(CC(F)(F)C(F)(F)F)cc1C [5-5] | A (Mortality 100%) | A (Mortality 100%) | A (Mortality 100%)
5 | CSCC(C)(C)NC(=O)c1c(I)cccc1C(=O)Nc1ccc(CC(F)(F)C(F)(F)F)cc1F [5-6] | A (Mortality 100%) | A (Mortality 100%) | A (Mortality 100%)
6 | CSCC(C)(C)NC(=O)c1c(I)cccc1C(=O)Nc1ccc(CC(F)(F)C(F)(F)C(F)(F)F)cc1C [5-7] | A (Mortality 100%) | A (Mortality 100%) | A (Mortality 100%)
7 | CSCC(C)(C)NC(=O)c1c(I)cccc1C(=O)Nc1ccc(CC(F)(F)C(F)(F)C(F)(F)C(F)(F)C(F)(F)F)cc1CC(F)(F)C(F)(F)C(F)(F)C(F)(F)C(F)(F)F [5-8] | A (Mortality 100%) | A (Mortality 100%) | A (Mortality 100%)
8 | CC(C)NC(=O)c1c(I)cccc1C(=O)Nc1ccc(C(C(F)(F)F)C(F)(F)F)cc1 [5-9] | A (Mortality 100%) | A (Mortality 100%) | A (Mortality 100%)
9 | CSCC(C)(C)NC(=O)c1c(I)cccc1C(=O)Nc1ccc(C(C(F)(F)F)C(F)(F)F)cc1 [5-10] | A (Mortality 100%) | A (Mortality 100%) | A (Mortality 100%)
10 | Cc1cc(C(C(F)(F)F)C(F)(F)F)ccc1NC(=O)c1ccccc1C(=O)NC(C)C [5-11] | E (Mortality 49% or less) | A (Mortality 100%) | A (Mortality 100%)
11 | CON=CC(C)(C)NC(=O)c1ccccc1C(=O)Nc1ccc(C(C(F)(F)F)C(F)(F)F)cc1C [5-12] | E (Mortality 49% or less) | A (Mortality 100%) | A (Mortality 100%)
12 | CSCC(C)(C)NC(=O)c1ccccc1C(=O)Nc1ccc(C(C(F)(F)F)C(F)(F)F)cc1C [5-13] | E (Mortality 49% or less) | E (Mortality 49% or less) | A (Mortality 100%)
13 | Cc1cc(C(C(F)(F)F)C(F)(F)F)ccc1NC(=O)c1cccc([N+](=O)[O-])c1C(=O)NC(C)C [5-14] | A (Mortality 100%) | A (Mortality 100%) | A (Mortality 100%)
14 | CSCC(C)(C)NC(=O)c1c(C(=O)Nc2ccc(C(C(F)(F)F)C(F)(F)F)cc2C)cccc1[N+](=O)[O-] [5-15] | A (Mortality 100%) | A (Mortality 100%) | A (Mortality 100%)
15 | CSCC(C)(C)NC(=O)c1c(F)cccc1C(=O)Nc1ccc(C(C(F)(F)F)C(F)(F)F)cc1C [5-16] | A (Mortality 100%) | A (Mortality 100%) | A (Mortality 100%)
16 | Cc1cc(C(C(F)(F)F)C(F)(F)F)ccc1NC(=O)c1cccc(Cl)c1C(=O)NC(C)C [5-17] | A (Mortality 100%) | A (Mortality 100%) | A (Mortality 100%)
17 | CON=CC(C)(C)NC(=O)c1c(Cl)cccc1C(=O)Nc1ccc(C(C(F)(F)F)C(F)(F)F)cc1C [5-18] | A (Mortality 100%) | A (Mortality 100%) | A (Mortality 100%)
18 | CSCC(C)(C)NC(=O)c1c(Cl)cccc1C(=O)Nc1ccc(C(C(F)(F)F)C(F)(F)F)cc1C [5-19] | A (Mortality 100%) | A (Mortality 100%) | A (Mortality 100%)
19 | CON=CC(C)(C)NC(=O)c1c(Br)cccc1C(=O)Nc1ccc(C(C(F)(F)F)C(F)(F)F)cc1C [5-20] | A (Mortality 100%) | A (Mortality 100%) | A (Mortality 100%)
20 | Cc1cc(C(C(F)(F)F)C(F)(F)F)ccc1NC(=O)c1cccc(I)c1C(=O)NC(C)C [5-21] | A (Mortality 100%) | A (Mortality 100%) | A (Mortality 100%)
21 | Cc1cc(C(C(F)(F)F)C(F)(F)F)ccc1NC(=O)c1cccc(I)c1C(=O)NC(C)(C)C [5-22] | C (Mortality 89-80%) | A (Mortality 100%) | A (Mortality 100%)
22 | Cc1cc(C(C(F)(F)F)C(F)(F)F)ccc1NC(=O)c1cccc(I)c1C(=O)NC(C)(C)CC(C)(C)C [5-23] |  | A (Mortality 100%) | A (Mortality 100%)
23 | C#CC(C)(C)NC(=O)c1c(I)cccc1C(=O)Nc1ccc(C(C(F)(F)F)C(F)(F)F)cc1C [5-24] | C (Mortality 89-80%) | A (Mortality 100%) | A (Mortality 100%)
24 | CCOC(=O)C=CC(C)(C)NC(=O)c1c(I)cccc1C(=O)Nc1ccc(C(C(F)(F)F)C(F)(F)F)cc1C [5-25] | A (Mortality 100%) | A (Mortality 100%) | A (Mortality 100%)
25 | CON=CC(C)(C)NC(=O)c1c(I)cccc1C(=O)Nc1ccc(C(C(F)(F)F)C(F)(F)F)cc1C [5-26] | C (Mortality 89-80%) | A (Mortality 100%) | A (Mortality 100%)
26 | Cc1cc(C(C(F)(F)F)C(F)(F)F)ccc1NC(=O)c1cccc(I)c1C(=O)NC(C)(C)CO [5-27] | E (Mortality 49% or less) | E (Mortality 49% or less) | A (Mortality 100%)
